Test results reported in patent US20250051301A1, “MUTANT IDH1 AND IDH2 INHIBITOR AND APPLICATION THEREOF” (Betta Pharmaceuticals Co., Ltd, priority 2022, published 2025).
In brackets after ≈: the same amount, converted by molar mass.

Legend:
mutant IDH1 = details: AML or MDS patients carrying IDH1 gene mutations, Phase I; cited from earlier work
IDH1^R132H [1] = target: T1, IDH1^R132H (Homo sapiens, UniProt O75874, R132H); assay: 2-HG assay in cells (U87 cell line stably transfected with IDH1-R132H); format: cell-based; details: 72 hours, read-out: 2-HG in medium (IC50, nM) (IDH1^R132H)
T1 sequence (O75874 whole entry R132H): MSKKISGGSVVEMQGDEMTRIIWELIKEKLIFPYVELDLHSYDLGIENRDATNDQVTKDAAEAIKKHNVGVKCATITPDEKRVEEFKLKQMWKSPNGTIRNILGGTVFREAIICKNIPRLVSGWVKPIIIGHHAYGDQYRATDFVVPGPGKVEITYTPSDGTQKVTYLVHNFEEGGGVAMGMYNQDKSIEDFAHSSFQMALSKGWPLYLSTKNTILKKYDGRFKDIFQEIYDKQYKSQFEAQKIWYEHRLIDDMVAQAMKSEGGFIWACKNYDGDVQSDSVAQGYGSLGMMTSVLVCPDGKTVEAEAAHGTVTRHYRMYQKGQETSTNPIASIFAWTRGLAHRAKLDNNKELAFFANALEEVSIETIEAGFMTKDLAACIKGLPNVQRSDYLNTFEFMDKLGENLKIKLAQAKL
Protocol: The compounds were detected for the inhibition of 2-HG production in the U87 cell line stably transfected with IDH1-R132H and the culture supernatant of TF-1 cells stably transfected with IDH2-R140Q. • (1) The cultured cells were collected by centrifugation, then suspended in a cell culture solution, counted, and seeded in a 96-well cell culture plate at 160 μL of cell suspension/well (20000 cells/well for U87-IDH1-R132H; 10000 cells/well for TF-1-IDH2-R140Q). • (2) A 96-well plate dilution was taken, and the compounds to be tested were diluted in a gradient manner in DMSO and a cell culture solution; and then 40 μL of the gradient-diluted compounds to be tested were added to the 96-well plate on which cells have been plated. […] Finally, the plate was cultured in a 37° C. incubator containing 5% CO2. • (3) After the compounds were incubated with the cells for 72 hours, the cell culture plate was taken out and centrifuged at 1500 rpm for 5 minutes, and then 100 μL of the medium supernatant was aspirated for 2-HG detection. • (4) 2-HG detection: the cell supernatant was diluted with purified water, 30 μL of the diluted sample was taken into a 1.5 ml centrifuge tube, and 200 μL of the internal standard solution was added. The mixture was mixed uniformly by vortex and centrifuged at 3200 rpm at 4° C. for 15 minutes. 100 μL of the supernatant solution was diluted with water at a 1:1 ratio and then detected by LC-MS. Analyte Peak Area was used to represent the 2-HG levels. • (5) Inhibition rate calculation, formula: % Inhibition=(1−Analyte Peak Area_sample/Analyte Peak Area_max)*100%, wherein Analyte Peak Area_sample represents the Analyte Peak Area of the sample to which the compound was added; Analyte Peak Area_max represents the average value of Analyte Peak Area of positive control wells (representing the absence of the compound). The curve fitting was performed using Graphpad Prism software to obtain IC50 values, and the test results were as shown in table 2.

IDH2^R140Q = target: T2, IDH2^R140Q (Homo sapiens, UniProt P48735, R140Q); assay: Enzyme activity inhibition assay (fluorescence-based), IDH2 R140Q; format: biochemical
T2 sequence (P48735 40-452 R140Q): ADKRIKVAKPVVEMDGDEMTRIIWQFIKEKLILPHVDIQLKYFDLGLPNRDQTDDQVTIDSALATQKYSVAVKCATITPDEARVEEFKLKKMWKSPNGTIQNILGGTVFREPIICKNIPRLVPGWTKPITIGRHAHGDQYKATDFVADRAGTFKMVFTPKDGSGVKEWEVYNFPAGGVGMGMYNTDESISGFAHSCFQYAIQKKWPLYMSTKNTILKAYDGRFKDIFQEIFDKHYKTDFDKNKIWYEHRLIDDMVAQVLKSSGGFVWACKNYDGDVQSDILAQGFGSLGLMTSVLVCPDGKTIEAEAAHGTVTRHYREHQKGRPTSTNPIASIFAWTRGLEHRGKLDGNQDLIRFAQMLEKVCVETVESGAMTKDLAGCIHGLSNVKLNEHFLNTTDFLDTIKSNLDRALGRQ
Protocol: (§1) The inhibitory ability of the compounds on the enzyme activities of IDH1^R132H and IDH2^R140Qwas detected and expressed as the half inhibitory concentration (IC50) value. AG-881 was used as a positive control compound. In this experiment, compounds were screened on enzymes IDH1^R132H and IDH2^R140Q using a fluorescence-based method (initial concentration: 10000 nM, 3-fold dilution, 10 concentrations, and single-well detection). • (1) Preparation of 1×assay buffer. • (2) Preparation of compound concentration gradient: the compounds to be tested were assayed at an initial concentration of 10000 nM, with 3-fold dilution and 10 concentrations, and diluted into 200-fold the final concentration in 100% DMSO solution in a 384-well plate. • (3) 250 nL of DMSO and 250 nL of diluted compounds were transferred to a reaction plate with Echo 550. • (4) IDH2^R140Q enzyme detection: 25 μL of an IDH2^R140Q enzyme solution was added, and the mixture was incubated for 60 minutes; then 25 μL of a substrate solution was added, and the mixture was incubated for 150 minutes; then 25 μL of a detection buffer was added, and the mixture was shaken for 1 minute and incubated for 60 minutes; and finally, Synergy 2, Ex544/Em590 cutoff 590 was used for reading. • (5) IDH1^R132H enzyme detection: 40 μL of a mixture solution of an IDH1^R132H enzyme at the 1.25-fold final concentration and NADPH was added, and the mixture was incubated for 60 minutes; then 10 μL of a substrate solution at the 5-fold final concentration was added, and the mixture was incubated for 90 minutes; then 25 μL of a detection buffer at the 3-fold final concentration was added, and the mixture was shaken for 1 minute. and finally, Synergy 2, Ex544/Em590 cutoff 590 was used for reading. • (8) Inhibition rate calculation, formula: % Inhibition=(RFU_sample−RFU_min)/(RFU_max−RFU_min)*100%, wherein RFU-sample represents the fluorescence intensity of a sample; RFU-min represents the average value of negative control wells and represents the fluorescence intensity with an enzyme; and RFU-max represents the average value of positive control wells and represents the fluorescence intensity without an enzyme. The curve fitting was performed using Graphpad Prism software to obtain IC50 values, and the test results were as shown in table 2.

IDH1^R132H [2] = target: T1, IDH1^R132H; assay: Enzyme activity inhibition assay (fluorescence-based), IDH1 R132H; format: biochemical
Protocol: as §1

[3] = Kinetic solubility experiment; format: physicochemical; details: buffer, kinetic from dmso stock
Protocol: 1. Preparation of Solutions/Buffers at Different pH Values
• Solution A: 17.42 g of K2HPO4 was weighed and dissolved in 1 L of ultrapure water. • Solution B: 13.65 g of KH2PO4 was weighed and dissolved in 1 L of ultrapure water.
A certain mass of substance to be tested was accurately weighed and dissolved in a certain volume of DMSO to obtain a 20 mM or 10 mM stock solution.
An acetonitrile stopping solution containing 1 ng/mL of labetalol and glibenclamide was prepared.
3. Incubation System (n=3)
The above-mentioned solutions were placed in a 96-well plate, respectively and shaken in a thermostatic oscillator for 2 hours (37° C., 150 rpm).
4. Control solution: 200 μM control solution of the substance to be tested was prepared in methanol. 5. Sample treatment
At a predetermined time, the 96-well plate was placed in a centrifuge and centrifuged at 4100 rpm for 15 minutes. A certain volume of the supernatant and a certain volume of control solution were respectively taken into 19 times volume of water containing 70% acetonitrile that has been previously added. The mixture was uniformly mixed, diluted 20 times with an internal standard stop solution and shaken in a thermostatic oscillator at 700 rpm at room temperature for 5 min. Further dilution may be necessary depending on the sensitivity of the compound, and sample analysis was performed by LC-MS/MS.
The ratio of compound peak area to internal standard peak area was used for calculation. According to the concentration relationship between the compound in the buffer and the control solution, the calculated concentration was the kinetic solubility, and the calculation formula was as follows:
Solubility(μg/mL)=mass spectral peak area of the compound to be tested in buffers at different pHs×200μM×molecular weight of the compound to be tested(MW)/mass spectral peak area of the compound to be tested in methanol/1000;

[4] = Pharmacokinetic detection in dogs; format: in vivo; details: beagle dogs
Protocol: Adult beagle dogs (6-12 months of age) received a single dose of the compounds to be tested via intravenous administration (IV) or oral gavage administration (PO), respectively. In the IV single dose, 5% DMSO+5% Solutol+90% physiological saline was used as the excipient; the intravenous administration was carried out at a dose of 1 mg/kg (2 females and 2 males); and the venous blood collection time was 5 min, 15 min, 0.5 h, 1 h, 2 h, 4 h, 6 h, 8 h, 10 h and 24 h. In the PO single dose, 5% DMSO+5% Solutol+90% purified water was used as the excipient; the oral gavage administration was carried out at a dose of 5 mg/kg (2 females and 2 males); and the blood collection time was 15 min, 0.5 h, 1 h, 2 h, 4 h, 6 h, 8 h, 10 h and 24 h. Blood samples were collected in tubes containing EDTA anticoagulants and centrifuged at 4000 rpm at 4° C. for 10 min, and the supernatants were transferred to centrifuge tubes and stored at −20° C. For the detection, 30 μL of the plasma supernatant sample was taken, and 200 μL of an internal standard solution was added. The mixture was centrifuged at 3000 rpm for 10 minutes. Then, 100 μL of the supernatant solution was diluted with water at a 1:1 ratio and then injected with an injection volume of 5 μL. The concentration of the compounds to be tested in the plasma sample was analyzed by liquid chromatography-tandem mass spectrometry (LC-MS/MS). Plasma concentration-time data for individual animals were analyzed using Sciex Analyst software. The non-compartment model was introduced into the concentration analysis, and pharmacokinetic parameters (Cl_obs, Cmax and AUClast) of the compounds to be tested were calculated using WinNonlin (version 4.1; pHarsight) software.

[5] = both sexes, dog, plasma, PO, 5 mg/kg

| SMILES | IC50 (IDH1^R132H [1]; class symbols) | IC50 (IDH2^R140Q; class symbols) | IC50 (IDH1^R132H [2]; class symbols) | other results |
| --- | --- | --- | --- | --- |
| N#Cc1ccnc(N2C(=O)CC[C@H]2C(=O)N(c2cncc(F)c2)[C@H](C(=O)NC2CC(F)(F)C2)c2ccccc2Cl)c1 [AG-120] | – | – | – | patients in whom a decrease in α-hydroxyglutaric acid (2-HG) levels was observed (mutant IDH1): 98% |
| C[C@@H](Nc1nc(N[C@H](C)C(F)(F)F)nc(-c2cc(Cl)c(N)c(Cl)n2)n1)C(F)(F)F [Example 1] | – | – | – | IC50 (IDH1^R132H [1]; numeric values): 26 nM; IC50 (IDH2^R140Q; numeric values): 128 nM; IC50 (IDH1^R132H [2]; numeric values): 143 nM |
| Cc1cc(-c2nc(N[C@H](C)C(F)(F)F)nc(N[C@H](C)C(F)(F)F)n2)nc(Cl)c1N [Example 7, 6-(5-amino-6-chloro-4-methylpyridin-2-yl)-N^2,N^4-bis((R)-1,1,1-trifluoropropyl-2-yl)-1,3,5-triazine-2,4-diamine] | 50 to 100 nM | 100 to 1000 nM | > 1000 nM | – |
| C[C@@H](Nc1nc(N[C@H](C)C(F)(F)F)nc(-c2cc(C(F)F)c(N)c(Cl)n2)n1)C(F)(F)F [Example 8, 6-(5-amino-6-chloro-4-(difluoromethyl)pyridin-2-yl)-N^2,N^4-bis((R)-1,1,1-trifluoroprop-2-yl)-1,3,5-triazine-2,4-diamine] | 100 to 1000 nM | 100 to 1000 nM | > 1000 nM | – |
| C[C@@H](Nc1nc(N[C@H](C)C(F)(F)F)nc(-c2cc(F)c(Br)c(Cl)n2)n1)C(F)(F)F [Example 18, 6-(5-bromo-6-chloro-4-fluoropyridin-2-yl)-N^2,N^4-bis((R)-1,1,1-trifluoroprop-2-yl)-1,3,5-triazine-2,4-diamine] | > 1000 nM | 50 to 100 nM | 50 to 100 nM | – |
| C[C@@H](Nc1nc(N[C@H](C)C(F)(F)F)nc(-c2cc(Cl)c(O)c(Cl)n2)n1)C(F)(F)F [Example 19, 6-(4,6-dichloro-5hydroxylpyridin-2-yl)-N^2,N^4-bis((R)-1,1,1-trifluoroprop-2-yl)-1,3,5-triazine-2,4-diamine] | > 1000 nM | 50 to 100 nM | 50 to 100 nM | – |
| C[C@@H](Nc1nc(N[C@H](C)C(F)(F)F)nc(-c2cc(F)c(N)c(F)n2)n1)C(F)(F)F [Example 23, 6-(5-amino-4,6-difluoropyridin-2-yl)-N^2,N^4-bis((R)-1,1,1-trifluoroprop-2-yl)-1,3,5-triazine-2,4-diamine] | ≤ 50 nM | 100 to 1000 nM | 100 to 1000 nM | – |
| C[C@@H](Nc1nc(N[C@H](C)C(F)(F)F)nc(-c2cccc(Cl)n2)n1)C(F)(F)F [compound 1, reference compound] | – | – | – | solubility at 2 h ([3]; aqueous buffer, pH = 3.0, 37° C.): 1.6 µg/mL (≈ 3.86 µM); solubility at 2 h ([3]; aqueous buffer, pH = 5.0, 37° C.): 1.4 µg/mL (≈ 3.38 µM); solubility at 2 h ([3]; aqueous buffer, pH = 7.4, 37° C.): 0.8 µg/mL (≈ 1.93 µM); solubility at 2 h ([3]; simulated gastric fluid, pH = 1.0, 37° C.): 39.6 µg/mL (≈ 95.5 µM); Cl_obs ([4]; IV, 1 mg/kg): 24.2 mL/min/kg; AUC(0-t) ([4]; both sexes, dog, plasma, IV, 1 mg/kg): 653 ng·h/mL; AUC(0-t) [4, 5]: 2160 ng·h/mL; Cmax [4, 5]: 658 ng/mL |
